We go through 1 compound from ChEMBL document CHEMBL5576037, “Discovery of the first ataxia telangiectasia and Rad3-related (ATR) degraders for cancer treatment” (Eur J Med Chem, 2024).

Molecules are shown by their SMILES. Active and inactive are the calls of the source. The rule behind the calls is not given here.

In data set [1] the target is T1, Protein cereblon/Serine/threonine-protein kinase ATR (Homo sapiens, UniProt Q13535+Q96SW2). The experiment in a line: PROTAC activity at CRBN/ATR in human LoVo cells assessed as induction of ATR degradation at 2.5 uM preincubated for 36 hrs followed by compound washout and measured after 12 to 48 hrs by Western blot analysis. The format is cell-based.
T1 sequence (Q13535 whole entry, looked up): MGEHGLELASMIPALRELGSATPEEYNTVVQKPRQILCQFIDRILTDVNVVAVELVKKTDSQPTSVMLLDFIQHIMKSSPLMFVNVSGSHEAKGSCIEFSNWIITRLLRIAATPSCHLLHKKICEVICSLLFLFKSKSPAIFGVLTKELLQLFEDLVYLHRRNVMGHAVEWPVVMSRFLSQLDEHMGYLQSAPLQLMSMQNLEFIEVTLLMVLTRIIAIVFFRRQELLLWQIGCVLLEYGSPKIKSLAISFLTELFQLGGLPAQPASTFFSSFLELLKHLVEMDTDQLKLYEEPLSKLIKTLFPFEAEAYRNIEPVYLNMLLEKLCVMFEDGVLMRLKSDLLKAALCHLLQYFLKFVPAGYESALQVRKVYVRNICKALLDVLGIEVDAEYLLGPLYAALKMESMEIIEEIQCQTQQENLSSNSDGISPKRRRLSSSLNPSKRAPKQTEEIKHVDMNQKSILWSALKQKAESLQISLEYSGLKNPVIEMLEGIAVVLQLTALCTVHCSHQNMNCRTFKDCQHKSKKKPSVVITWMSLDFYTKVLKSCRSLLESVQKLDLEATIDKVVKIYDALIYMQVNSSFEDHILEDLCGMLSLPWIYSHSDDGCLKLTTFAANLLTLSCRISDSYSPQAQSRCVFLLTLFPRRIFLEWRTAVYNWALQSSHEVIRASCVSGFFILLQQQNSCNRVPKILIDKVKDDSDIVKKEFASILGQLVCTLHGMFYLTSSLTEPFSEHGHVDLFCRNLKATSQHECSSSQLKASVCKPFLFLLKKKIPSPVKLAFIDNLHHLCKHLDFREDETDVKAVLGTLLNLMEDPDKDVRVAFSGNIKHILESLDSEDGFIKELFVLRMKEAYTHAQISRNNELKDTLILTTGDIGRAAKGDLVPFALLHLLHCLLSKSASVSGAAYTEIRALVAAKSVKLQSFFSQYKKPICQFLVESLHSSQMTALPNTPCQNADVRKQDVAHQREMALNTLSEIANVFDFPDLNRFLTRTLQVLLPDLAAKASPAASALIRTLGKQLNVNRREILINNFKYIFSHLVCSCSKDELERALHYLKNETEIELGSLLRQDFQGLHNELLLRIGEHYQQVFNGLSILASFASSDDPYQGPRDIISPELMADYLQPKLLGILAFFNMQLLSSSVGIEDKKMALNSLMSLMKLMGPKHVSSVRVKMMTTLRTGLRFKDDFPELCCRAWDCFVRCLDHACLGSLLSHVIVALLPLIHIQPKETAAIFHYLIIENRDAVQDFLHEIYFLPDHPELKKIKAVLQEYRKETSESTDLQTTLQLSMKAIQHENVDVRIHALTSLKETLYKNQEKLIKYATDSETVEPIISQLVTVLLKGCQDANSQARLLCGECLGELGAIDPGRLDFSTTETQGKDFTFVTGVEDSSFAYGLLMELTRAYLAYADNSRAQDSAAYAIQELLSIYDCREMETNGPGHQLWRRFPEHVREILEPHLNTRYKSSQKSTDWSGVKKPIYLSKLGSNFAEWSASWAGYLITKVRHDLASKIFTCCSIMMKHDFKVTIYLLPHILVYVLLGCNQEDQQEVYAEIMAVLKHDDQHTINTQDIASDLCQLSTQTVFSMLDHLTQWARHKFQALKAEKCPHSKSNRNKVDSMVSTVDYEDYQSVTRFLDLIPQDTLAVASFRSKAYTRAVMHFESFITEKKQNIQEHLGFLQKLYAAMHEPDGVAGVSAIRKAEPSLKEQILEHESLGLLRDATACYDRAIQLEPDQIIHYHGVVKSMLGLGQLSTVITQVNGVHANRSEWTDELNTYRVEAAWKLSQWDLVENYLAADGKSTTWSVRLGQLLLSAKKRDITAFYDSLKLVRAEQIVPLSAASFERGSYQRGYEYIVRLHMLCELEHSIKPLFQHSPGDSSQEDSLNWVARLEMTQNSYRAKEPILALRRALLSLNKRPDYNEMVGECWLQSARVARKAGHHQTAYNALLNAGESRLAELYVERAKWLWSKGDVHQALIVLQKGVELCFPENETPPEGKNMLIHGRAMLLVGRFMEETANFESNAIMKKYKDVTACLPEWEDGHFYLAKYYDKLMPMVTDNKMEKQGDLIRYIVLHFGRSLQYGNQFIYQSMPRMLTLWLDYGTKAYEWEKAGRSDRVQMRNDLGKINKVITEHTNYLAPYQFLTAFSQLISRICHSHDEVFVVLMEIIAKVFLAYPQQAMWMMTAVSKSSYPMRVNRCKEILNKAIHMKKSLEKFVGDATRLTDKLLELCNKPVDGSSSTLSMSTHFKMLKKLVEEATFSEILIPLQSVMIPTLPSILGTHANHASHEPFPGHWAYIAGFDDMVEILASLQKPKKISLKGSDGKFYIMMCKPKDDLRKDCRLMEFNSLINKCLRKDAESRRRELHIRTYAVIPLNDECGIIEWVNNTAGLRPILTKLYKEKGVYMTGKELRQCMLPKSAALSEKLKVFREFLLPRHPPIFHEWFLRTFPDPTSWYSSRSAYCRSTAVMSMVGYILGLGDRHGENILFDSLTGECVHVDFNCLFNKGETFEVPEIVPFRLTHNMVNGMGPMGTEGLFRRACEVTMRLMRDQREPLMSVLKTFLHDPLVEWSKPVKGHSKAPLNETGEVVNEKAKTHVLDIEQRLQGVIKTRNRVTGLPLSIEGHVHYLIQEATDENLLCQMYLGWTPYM
T1 sequence (Q96SW2 whole entry, looked up): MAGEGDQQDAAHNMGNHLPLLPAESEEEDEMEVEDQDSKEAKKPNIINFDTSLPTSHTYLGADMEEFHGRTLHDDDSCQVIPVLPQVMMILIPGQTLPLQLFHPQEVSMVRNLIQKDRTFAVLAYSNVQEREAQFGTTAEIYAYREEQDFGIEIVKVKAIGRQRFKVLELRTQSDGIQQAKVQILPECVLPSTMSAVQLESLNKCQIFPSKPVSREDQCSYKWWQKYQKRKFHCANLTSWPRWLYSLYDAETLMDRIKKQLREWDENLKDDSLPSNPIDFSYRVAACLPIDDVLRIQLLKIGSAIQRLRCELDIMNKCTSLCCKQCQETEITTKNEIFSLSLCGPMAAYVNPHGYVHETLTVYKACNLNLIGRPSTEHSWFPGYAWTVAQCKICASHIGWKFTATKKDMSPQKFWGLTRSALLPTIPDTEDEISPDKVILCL
Data set [2] is described as follows: Toxicity in BALB/c nude mouse xenografted with human LoVo cells assessed as body weight loss at 12.5 mg/kg, ip administered once daily for 15 days in presence of cisplatin. The format is organism-based. The settings on record: in vivo, 360 h, time 15 day. For orientation: Xenograft models place foreign cells or tissue in a host animal.
The test system of data set [3] is LoVo. The data set can be described thus: Induction of apoptosis in human LoVo cells assessed as apoptotic rate at 0.5 uM incubated for 48 hrs by Annexin V-FITC/PI staining based flow cytometric analysis (reference value: 5.32 %). Type of data set: functional. Background: A flow cytometer gives signals particle by particle.
Data set [4] deals with T1, Protein cereblon/Serine/threonine-protein kinase ATR. The experiment in a line: PROTAC activity at CRBN/ATR in human LoVo cells assessed as induction of ATR degradation at 2.5 uM preincubated with pomalidomide for 4 hrs followed by compound addition and measured after 48 hrs by Western blot analysis. The format is cell-based. For orientation: Immunoblotting shows a protein as a band on a membrane.

In data set [5] the test system is LoVo. The data set can be described thus: Cell cycle arrest in human LoVo cells assessed as accumulation of cells at S phase at 1 uM incubated for 72 hrs by PI staining based flow cytometric analysis (reference value: 25.5 %). Type of data set: functional.
The target of data set [6] is T2, Serine/threonine-protein kinase Chk1 (Homo sapiens) (UniProt O14757).
T2 sequence (whole entry): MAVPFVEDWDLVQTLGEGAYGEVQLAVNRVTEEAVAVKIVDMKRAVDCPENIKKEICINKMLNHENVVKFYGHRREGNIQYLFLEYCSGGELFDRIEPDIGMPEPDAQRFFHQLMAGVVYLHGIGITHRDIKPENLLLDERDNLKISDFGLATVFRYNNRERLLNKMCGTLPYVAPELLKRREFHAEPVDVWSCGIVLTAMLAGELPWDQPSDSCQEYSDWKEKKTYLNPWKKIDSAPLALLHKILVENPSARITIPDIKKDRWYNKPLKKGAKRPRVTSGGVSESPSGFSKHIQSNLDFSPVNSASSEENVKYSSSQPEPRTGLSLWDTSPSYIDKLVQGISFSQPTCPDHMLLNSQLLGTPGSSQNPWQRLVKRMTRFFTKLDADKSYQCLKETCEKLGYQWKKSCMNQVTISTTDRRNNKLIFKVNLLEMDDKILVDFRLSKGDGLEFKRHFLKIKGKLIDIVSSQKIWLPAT
The experiment in a line: Inhibition of CHK1 phosphorylation at Ser345 residue in human LoVo cells incubated for 72 hrs by Western blot analysis. The format is cell-based. Conditions: dose 0.16-10 µM.

Data set [7] can be described thus: Cmax in BALB/c nude mouse xenografted with human LoVo cells at 25 mg/kg, ip administered as single dose and measured after 12 hrs by LC-MS/MS analysis. The format is ADME, organism-based. The settings on record: in vivo.
The test system of data set [8] is LoVo. The data set can be described thus: Induction of DNA damage in human LoVo cells assessed as increase in gammaH2AX expression at 0.5 to 1 uM incubated for 72 hrs by DAPI staining based immunofluorescence analysis. Type of data set: functional, cell-based. The settings on record: dose 0.5-1 µM.

What is called Cmax is the maximum level reached in the sampled fluid or tissue.

Regarding `C[C@@H]1COCCN1c1cc(C2([S@@](C)(=O)=NC(=O)CCc3cn(CCCCCCCC(=O)Nc4cccc5c4C(=O)N(C4CCC(=O)NC4=O)C5=O)nn3)CC2)nc(-c2ccnc3[nH]ccc23)n1` (stereo partly drawn), the result in data set [1] and in data set [8] was Active. In addition, the Activity result in data set [2] was “Non-Toxic”; in data set [3] it was 23.91%; in data set [5], 19.3%. Besides, the outcome in data set [4] was inactive. In data set [6], the inhibition entry is “Dose-Dependent Effect”. In data set [7], this compound yielded a Cmax of 1180 ng/mL.
